Measured values taken from patent US12215106B2, “Pharmaceutical compounds and therapeutic methods” (RUTGERS, THE STATE UNIVERSITY OF NEW JERSEY, priority 2018, dated 2025).
Counter-ions that a name gives are not always drawn. Like-named read-outs stand apart in the source and are kept apart here.

Test: Plasma pharmacokinetics and brain distribution after single IV, IP and oral administration
Format: in vivo
Details: for Kp at 0.08 h / Kp at 0.35 h / Kp at 1 h / Kp at 3 h / Kp at 6 h: read-out: Brain-to-plasma ratio
Protocol: (§1) The objective of this study was to investigate the plasma pharmacokinetics and brain distribution of Compound (14 in male C57BL/6 mice following a single intravenous, intraperitoneal and oral administration. A group of sixty-three male mice were divided into three groups (Group 1: 2 mg/kg/IV; Group 2: 10 mg/kg/IP and Group 3: 10 mg/kg/PO) with each group comprising of twenty-one mice.
Animals in Group 1 were administered intravenously with Compound 15 solution formulation in 5% NMP, 5% Solutol HS-15, 30% PEG-400 and 60% Captisol (20% w/v) at 2 mg/kg dose. […] Considering mortality intravenous dose was reduced to 2 mg/kg.
Animals in Group 2 and 3 were administered with Compound 15 solution formulation in 5% NMP, 5% Solutol HS-15, 30% PEG-400 and 60% Captisol (20% w/v) at a dose of 10 mg/kg by intraperitoneal and oral route respectively.
(§2) Blood samples (approximately 60 μL) were collected under light isoflurane anesthesia from retro orbital plexus from a set of three mice at 0.08, 0.35, 1, 3, 6, 12 and 24 hr. Plasma samples were separated by centrifugation of whole blood and stored below −70±10° C. until bioanalysis. Immediately after collection of blood, brain samples were collected from set of three mice at each time point. Brain samples were homogenized using ice-cold phosphate buffer saline (pH-7.4) in a ratio of 2 (buffer):1(brain); and homogenates were stored below −70±10° C. until analysis. Total homogenate volume was three times the brain weight. All samples were processed for analysis by protein precipitation using acetonitrile and analyzed with fit-for-purpose LC/MS/MS method (LLOQ2.00 ng/mL for plasma and 3.00 ng/g for brain). Pharmacokinetic parameters were calculated using the non-compartmental analysis tool of Phoenix WinNonlin® (Version 7.0). Pharmacokinetic parameters of Compound 15 are summarized below.
as §1, with “Compound 16” for “Compound (14”, “1: 10” for “1: 2”
Animals in Group 1 were administered intravenously with Compound 16 solution formulation in 5% NMP, 5% Solutol HS-15 and 90% normal saline at 10 mg/kg dose.
Animals in Group 2 and 3 were administered with Compound 16 solution formulation in 5% NMP, 5% Solutol HS-15 and 90% normal saline at a dose of 10 mg/kg by intraperitoneal and oral route respectively.
as §2, with “(LLOQ—1.00” for “(LLOQ2.00”, “16” for “15”
as §1, with “17” for “(14”, “mice. […]” for “mice.”

[1] = male, C57BL/6, mouse, brain, ip, 10 mg/kg, IP 10 mg/kg
[2] = male, C57BL/6, mouse, brain, po, 10 mg/kg, PO 10 mg/kg
[3] = male, C57BL/6, mouse, in vivo, ip, 10 mg/kg
[4] = male, C57BL/6, mouse, in vivo, ip, 10 mg/kg, 12 h
[5] = male, C57BL/6, mouse, in vivo, ip, 10 mg/kg, 24 h
[6] = male, C57BL/6, mouse, in vivo, ip, 10 mg/kg, Brain concentration, individual animal
[7] = male, C57BL/6, mouse, in vivo, ip, 10 mg/kg, Mean brain conc.
[8] = male, C57BL/6, mouse, in vivo, ip, 10 mg/kg, Mean plasma conc.
[9] = male, C57BL/6, mouse, in vivo, ip, 10 mg/kg, Plasma concentration, individual animal
[10] = male, C57BL/6, mouse, in vivo, iv, 2 mg/kg
[11] = male, C57BL/6, mouse, in vivo, iv, 2 mg/kg, 3 h
[12] = male, C57BL/6, mouse, in vivo, iv, 2 mg/kg, 6 h
[13] = male, C57BL/6, mouse, in vivo, iv, 2 mg/kg, 12 h
[14] = male, C57BL/6, mouse, in vivo, iv, 2 mg/kg, 24 h
[15] = male, C57BL/6, mouse, in vivo, iv, 2 mg/kg, Brain concentration, individual animal
[16] = male, C57BL/6, mouse, in vivo, iv, 2 mg/kg, Mean brain conc.
[17] = male, C57BL/6, mouse, in vivo, iv, 2 mg/kg, Mean plasma conc.
[18] = male, C57BL/6, mouse, in vivo, iv, 2 mg/kg, Plasma concentration, individual animal
[19] = male, C57BL/6, mouse, in vivo, po, 10 mg/kg
[20] = male, C57BL/6, mouse, in vivo, po, 10 mg/kg, 12 h
[21] = male, C57BL/6, mouse, in vivo, po, 10 mg/kg, 24 h
[22] = male, C57BL/6, mouse, in vivo, po, 10 mg/kg, Brain concentration, individual animal
[23] = male, C57BL/6, mouse, in vivo, po, 10 mg/kg, Mean brain conc.
[24] = male, C57BL/6, mouse, in vivo, po, 10 mg/kg, Mean plasma conc.
[25] = male, C57BL/6, mouse, in vivo, po, 10 mg/kg, Plasma concentration, individual animal
[26] = male, C57BL/6, mouse, in vivo, IV 2 mg/kg
[27] = male, C57BL/6, mouse, plasma, IP 10 mg/kg
[28] = male, C57BL/6, mouse, plasma, IV 2 mg/kg
[29] = male, C57BL/6, mouse, plasma, PO 10 mg/kg

## [2H]C1([2H])Oc2ccc(Nc3nc(-c4c(C)nc5ccccn45)cs3)cc2O1 [Compound 17, N-(benzo[d][1,3]dioxol-5-yl-2,2-d2)-4-(2-methylimidazo[1,2-c]pyridin-3-yl)thiazol-2-amine hydrochloride]
PO 10 mg/kg, AUClast considered, hydrochloride, 10 mg/kg
  Oral bioavailability, % F: ~100%
brain, IP 10 mg/kg
  AUClast: 360.87 ng·h/g
brain, IV 2 mg/kg
  AUClast: 97.08 ng·h/g
brain, PO 10 mg/kg
  AUCinf: 204.06 ng·h/g
  AUClast: 171.84 ng·h/g
male, C57BL/6, mouse, brain, ip, 10 mg/kg, IP 10 mg/kg, 0.08 hr
  Kp at 0.08 h: 0.61
[1]
  Kp at 0.35 h: 0.52
  Kp at 1 h: 0.39
  Kp at 3 h: 1.1
  Kp at 6 h: 0.59
male, C57BL/6, mouse, brain, ip, 10 mg/kg, IP 10 mg/kg, read-out: brain-to-plasma ratio, range over time
  Kp: 0.39 to 1.1
male, C57BL/6, mouse, brain, iv, 2 mg/kg, IV 2 mg/kg, read-out: brain-to-plasma ratio, range over time
  Kp: 0.18 to 4.03
male, C57BL/6, mouse, brain, po, 10 mg/kg, PO 10 mg/kg, 0.08 hr
  Kp at 0.08 h: 0.33
[2]
  Kp at 0.35 h: 0.32
  Kp at 1 h: 0.48
  Kp at 3 h: 0.32
  Kp at 6 h: 0.23
male, C57BL/6, mouse, brain, po, 10 mg/kg, PO 10 mg/kg, read-out: brain-to-plasma ratio, range over time
  Kp: 0.23 to 0.48
male, C57BL/6, mouse, brain, po, 10 mg/kg, summary data, read-out: Brain to plasma ratio following a single oral dose
  Kp: 0.48
[3]
  Brain concentrations quantifiable up to: up to 6 hr
  Plasma concentrations quantifiable up to: up to 6 hr
[4]
  Brain concentration, individual animal: 0.00 ng/g
  Plasma concentration, individual animal: 0.00 ng/mL
[5]
  Brain concentration, individual animal: 0.00 ng/g
  Plasma concentration, individual animal: 0.00 ng/mL
[6]
  concentration at 0.08 h: 285 ng/g
  concentration at 0.35 h: 291 ng/g
  concentration at 1 h: 65.9 ng/g
  concentration at 12 h: 0 ng/g
  concentration at 24 h: 0 ng/g
[7]
  concentration at 0.35 h: 236 ng/g
  concentration at 1 h: 90.3 ng/g
  concentration at 3 h: 82 ng/g
  concentration at 6 h: 26 ng/g
  concentration at 12 h: 0 ng/g
  concentration at 24 h: 0 ng/g
[8]
  concentration at 0.35 h: 458 ng/mL
  concentration at 1 h: 232 ng/mL
  concentration at 3 h: 74.9 ng/mL
  concentration at 6 h: 43.7 ng/mL
  concentration at 12 h: 0 ng/mL
  concentration at 24 h: 0 ng/mL
[9]
  concentration at 0.08 h: 530 ng/mL
  concentration at 0.35 h: 478 ng/mL
  concentration at 1 h: 223 ng/mL
  concentration at 12 h: 0 ng/mL
  concentration at 24 h: 0 ng/mL
[10]
  Brain concentrations quantifiable up to: up to 1 hr
  Vss, fold more than normal volume of total body water (0.7 L/kg): 6.3 fold
[11]
  Brain concentration, individual animal: 0.00 ng/g
  Plasma concentration, individual animal: 0.00 ng/mL
[12]
  Brain concentration, individual animal: 0.00 ng/g
  Plasma concentration, individual animal: 0.00 ng/mL
[13]
  Brain concentration, individual animal: 0.00 ng/g
  Plasma concentration, individual animal: 0.00 ng/mL
[14]
  Brain concentration, individual animal: 0.00 ng/g
  Plasma concentration, individual animal: 0.00 ng/mL
[15]
  concentration at 0.08 h: 44.7 ng/g
  concentration at 1 h: 17.1 ng/g
  concentration at 3 h: 0 ng/g
  concentration at 6 h: 0 ng/g
  concentration at 12 h: 0 ng/g
  concentration at 24 h: 0 ng/g
[16]
  concentration at 0.08 h: 44.9 ng/g
  concentration at 0.35 h: 180 ng/g
  concentration at 1 h: 13.8 ng/g
  concentration at 3 h: 0 ng/g
  concentration at 6 h: 0 ng/g
  concentration at 12 h: 0 ng/g
  concentration at 24 h: 0 ng/g
[17]
  concentration at 0.08 h: 256 ng/mL
  concentration at 0.35 h: 44.8 ng/mL
  concentration at 1 h: 9.57 ng/mL
  concentration at 3 h: 0 ng/mL
  concentration at 6 h: 0 ng/mL
  concentration at 12 h: 0 ng/mL
  concentration at 24 h: 0 ng/mL
[18]
  concentration at 0.08 h: 260 ng/mL
  concentration at 0.35 h: 41.5 ng/mL
  concentration at 3 h: 0 ng/mL
  concentration at 6 h: 0 ng/mL
  concentration at 12 h: 0 ng/mL
  concentration at 24 h: 0 ng/mL
[19]
  Brain concentrations quantifiable up to: up to 6 hr
  Plasma concentrations quantifiable up to: up to 6 hr
[20]
  Brain concentration, individual animal: 0.00 ng/g
  Plasma concentration, individual animal: 0.00 ng/mL
[21]
  Brain concentration, individual animal: 0.00 ng/g
  Plasma concentration, individual animal: 0.00 ng/mL
[22]
  concentration at 0.35 h: 43.6 ng/g
  concentration at 3 h: 28.1 ng/g
  concentration at 12 h: 0 ng/g
  concentration at 24 h: 0 ng/g
[23]
  concentration at 0.35 h: 53 ng/g
  concentration at 1 h: 51.9 ng/g
  concentration at 3 h: 20.5 ng/g
  concentration at 6 h: 10.5 ng/g
  concentration at 12 h: 0 ng/g
  concentration at 24 h: 0 ng/g
[24]
  concentration at 0.35 h: 163 ng/mL
  concentration at 1 h: 109 ng/mL
  concentration at 3 h: 63.5 ng/mL
  concentration at 6 h: 45.5 ng/mL
  concentration at 12 h: 0 ng/mL
  concentration at 24 h: 0 ng/mL
[25]
  concentration at 3 h: 62.6 ng/mL
  concentration at 12 h: 0 ng/mL
  concentration at 24 h: 0 ng/mL
male, C57BL/6, mouse, in vivo, IP 10 mg/kg, 0.08 hr, read-out: Mean brain conc.
  concentration at 0.08 h: 288 ng/g
male, C57BL/6, mouse, in vivo, IP 10 mg/kg, 0.08 hr, read-out: Mean plasma conc.
  concentration at 0.08 h: 469 ng/mL
male, C57BL/6, mouse, in vivo, IV 2 mg/kg, 0.08 hr
  Kp at 0.08 h: 0.18
[26]
  Kp at 0.35 h: 4.03
  Kp at 1 h: 1.45
male, C57BL/6, mouse, in vivo, PO 10 mg/kg, 0.08 hr, read-out: Mean brain conc.
  concentration at 0.08 h: 67.3 ng/g
male, C57BL/6, mouse, in vivo, PO 10 mg/kg, 0.08 hr, read-out: Mean plasma conc.
  concentration at 0.08 h: 207 ng/mL
male, C57BL/6, mouse, in vivo, brain, IP 10 mg/kg
  Cmax: 288 ng/g
male, C57BL/6, mouse, in vivo, brain, PO 10 mg/kg
  Cmax: 67.3 ng/g
male, C57BL/6, mouse, in vivo, plasma, IP 10 mg/kg
  Cmax: 469 ng/mL
male, C57BL/6, mouse, in vivo, plasma, PO 10 mg/kg
  Cmax: 207 ng/mL
male, C57BL/6, mouse, plasma, po, 10 mg/kg, PO 10 mg/kg, AUClast considered, read-out: Oral bioavailability, % F
  bioavailability: > 100%
male, C57BL/6, mouse, plasma, po, 10 mg/kg, summary data, read-out: Oral bioavailability
  bioavailability: > 100%
male, C57BL/6, mouse, brain, IP 10 mg/kg
  Tmax: 4.8 min
male, C57BL/6, mouse, brain, PO 10 mg/kg
  Tmax: 4.8 min
[27]
  AUC(0-inf): 786 ng·h/mL
  AUC(0-t): 675 ng·h/mL
  Tmax: 4.8 min
[28]
  AUC(0-inf): 88.2 ng·h/mL
  AUC(0-t): 85.7 ng·h/mL
male, C57BL/6, mouse, plasma, IV 2 mg/kg, read-out: CL, plasma clearance
  clearance: 378 mL/min/kg
male, C57BL/6, mouse, plasma, IV 2 mg/kg, read-out: T1/2, terminal elimination half-life (converted)
  half-life: 12.6 min
male, C57BL/6, mouse, plasma, IV 2 mg/kg, read-out: Vss
  Vd: 4.4 L/kg
[29]
  AUC(0-t): 482 ng·h/mL
  Tmax: 4.8 min
mouse, in vivo, iv, 10 mg/kg
  mortality immediately after dose administration: mortality was observed in six animals
Summary data, hydrochloride
  Oral bioavailability: 112%
